Patent publication US20200000793A1, “TOPICAL FORMULATIONS OF TARGETED NITROXIDE AGENTS” (University of Pittsburgh - Of the Commonwealth System of …, priority 2011, published 2020)

Key:
[1] = system: human skin; assay: Living human skin samples, 60 GY irradiation followed by topical JP4-039: oxidative skin damage
Protocol: Oxidative skin damage directly correlates with epidermal thickening, an increase in apoptotic (dying) cells (measured by TUNEL and Caspase release) and an increase in 8-oxoguanine positive cells. Further, oxidative damage is a result of free radical formation that correlates with increases in carbonylated proteins and reduced levels of GSH. […] Living human skin samples were divided and groups of skin samples were treated with either 60 GY irradiation (60 GY), 60 GY followed by topical JP4-039(60 GY+JP4-039), 60 GY followed by formulation without JP4-039(60 GY+Formulation), or were cultured without irradiation (0 GY CONTROL). Photographs in FIG. 10 a) are representative H&E sections (400×). […] In FIG. 10 c) sections were stained with antibody against 8-oxoguanine followed by DAB and counterstained with hemotoxalin. Positive cells have brown nuclei (400×). Epidermal thickness FIG. 10 (d) was determined by photographing 5 consecutive H&E sections (400×) and measuring the length of the epidermis at 5 sites within each photograph. The percentage of TUNEL positive cells FIG. 10 (e) and 8 oxoguanine positive cells FIG. 10 (f) was determined by counting all epidermal cells (positive and negative) in five consecutive 400× sections beginning with the site of maximal apoptosis. Carbonyl Protein FIG. 10 (g), Caspase 3/8 FIG. 10 (h) and GSH FIG. 10 (i) levels were determined in skin homogenates and were normalized by mg protein. Carbonyl protein samples were performed in triplicate from pooled homogenates. All graphical data were converted to % increase from control and are presented as mean+sem. Statistical significance was determined by ANOVA followed by a Bonferroni post test with significance set at p<0.05.

[2] = system: irradiation induced skin damage; assay: Mouse leg skin irradiated with 6 MeV electron beam, topical F14 emulsion after irradiation: skin damage; type: in vivo, C57BL/6NHsd mice
Protocol: Mouse flank was shaved and depilated 24 hrs. prior to irradiation with 35 GY using a 6 MeV electron beam.
JP4-039 was topically applied in a liposome formulation (F14-JP4-039 Emulsion: JP4-039 (2 mg/ml) was emulsified in sesame seed oil (100 mg/ml), and soy phosphatidyl choline (50 mg/ml) by sonication) 30 minutes after irradiation and daily for the next 3 days. Mice were photographed and skin damage scored by clinical criteria. Leg contracture was measured by comparing maximal extension between control and irradiated legs. Histological characterization of cellular infiltrates and collagen levels was performed.
JP4-039 was topically applied in a the above-described liposome formulation 30 minutes after irradiation. Skin samples taken at 4 hours. Analyzed for apoptosis via caspase 3 and TUNEL. Antioxidant functions evaluated by changes in GSH levels. All quantitative data presented as means±sem and significance determined by ANOVA followed by a Bonferoni post test set at p<0.05.
Materials/Methods: The right legs of C57BL/6NHsd mice were shaved and treated with Nair to remove the fur. Twenty four hours later the right legs were irradiated to doses of 30 or 35 Gy using 6 MeV electron beam, bolused to bring the surface dose to 100%. At 30 minutes after irradiation, 24, 48 and 72 hours, F14 emulsion only or F14-JP4-039 (100 μg in 50 μl) was applied to the skin. Photos were taken for visual evidence of skin damage and leg contracture was measured as a functional evaluation of tissue damage. Histological characterization of skin thickening, cellular infiltrates and collagen evaluation was also performed. To evaluate the mechanism of radiation damage mitigation, skin samples were assayed at 4 hours after irradiation for markers of apoptosis and oxidative stress. Results: Skin damage was scored on day 21 after irradiation. […] Assessment of Irradiation Damage: Skin damage was measured using visual evidence seen from photographs of the skin and measuring leg contracture. […]

[3] = In vivo topical delivery in lipid-based formulation, amount retained in tape-stripped skin; conditions: 2 mg/ml in saline with surfactants and egg PC, liposome size 200 nm; tape-stripped skin of topically treated mice
Protocol: For these studies, 2 mg/ml JP4-039 was formulated in saline with a mixture of surfactants with egg PC by sonication to a liposome size of 200 nm. Harvested, tape-stripped (to remove superficial drug) skin from topically treated mice was processed as described above to determine the amount of JP4-039 retained in the skin. We found cutaneous retention to be in the range of 11.7+/−3.1 pmole/mg, a level compatible with therapeutic efficacy.

[4] = system: oxidative stress induced skin damage; assay: Mice irradiated with 35 GY, JP4-039 at 0.5, 24 and 48 hours: barrier function (TEWL), fibrosis, thickening; type: in vivo
Protocol: Clinically relevant disruption of skin barrier function results in increased water loss from the skin surface. This can be measured non-invasively by the Transepidermal Water Loss (TEWL) assay. Increasing TEWL values directly correlate with damage to the skin's barrier function.
Groups of mice were irradiated with 35 GY to induce oxidative stress and then treated with JP4-039 or formulation alone 0.5, 24 and 48 hours after exposure. Skin was evaluated 21 days after initial treatment. Damage to skin barrier function was determined by TEWL. Results are reported as % recovery from 35 GY damage defined as (((radiated average−test sample value+0 GY average)/(treated average)*100) (FIG. 18a).
Fibrosis was evaluated histologically by evaluating the extent of collagen infiltration in the skin sections in (FIG. 18b) (100×). Dermal thickness is indicated by the arrows and collagen fibers were identified by Masson's Trichrome staining (blue). Representative H&E stained sections are provided in (FIG. 18c) with arrows showing epidermal thickness (200×). Dermal (FIG. 18d 100×) and epidermal (FIG. 18e) thickness (200×) was quantified at 5 sites within 4 representative histologic images for each mouse using NIH Image J Software. Statistical significance was determined by ANOVA followed by a Bonferroni post test set at p<0.05.

[5] = living human skin explants, topical
[6] = F14 emulsion applied at 30 min after irradiation

## CC(C)C[C@@H](/C=C/CC(=O)NC1CC(C)(C)N([O])C(C)(C)C1)NC(=O)OC(C)(C)C [JP4-039, (S,E)-5-(tert-Butoxycarbonylamino)-7-methyloct-3-enoic Acid-TEMPO]
[1]; [5]
  depletion of the antioxidant GSH: decreasing
  epidermal thickening associated with oxidative skin damage: reduction
  formation of protein carbonyls: reduction
  radiation induced cellular apoptosis: reduction
[1]; living human skin samples, 60 GY followed by topical JP4-039
  oxidative damage of human skin: protects human skin from oxidative damage
[2]; [6]
  caspase 3 activity: decreased
  thickening of the skin: decreased
[2]; topical 30 minutes after 35 GY, skin taken at 4 hours, GSH levels
  antioxidant function in the skin: potent antioxidant function
[3]
  cutaneous retention: 11.7 ± 3.1 pmol/mg
[4]; day 21
  fibrosis associated changes (epidermal and dermal thickening, collagen deposition): prevents/mitigates
[4]; day 21, p=0.011
  radiation induced TEWL increases: significantly reversed
